These results are taken from publication PMC7075904, “Tethered primary hepatocyte spheroids on polystyrene multi-well plates for high-throughput drug safety testing” (Scientific Reports, 2020).

Data set [1] deals with rat hepatocytes tethered spheroids on modified PS plates. The experiment in a line: CellTiter-Glo 3D Cell Viability Assay on tethered spheroids with automated liquid handling. Type of data set: cell-based. The conditions noted are these: 200 μM, 24 hours, rat hepatocyte tethered spheroids; DMSO-treated wells 12.32 × 10^6 RLU. How it is done:
Primary hepatocytes were harvested from male Wistar rats using a two-step in situ collagenase perfusion method according to protocols described previously[19],[31]. Freshly isolated rat hepatocytes were seeded onto the different substrates at a density of 1 × 10^5 cells/cm^2 in 96-well microplates and cultured in 100 μl of William’s E culture medium supplemented with 1 mg/mL bovine serum albumin (BSA), 10 ng/mL epidermal growth factor, […] insulin, 5 nM dexamethasone, 50 ng/mL linoleic acid, 100 units/mL penicillin and […]. Media was changed daily during the entire culture period. For collagen monolayer culture, neutralized 1.5 mg/ml Type I bovine collagen (Advanced BioMatrix, San Diego, CA, USA) was coated on the surface of the microplates.
Cell attachment and tethered spheroid formation was monitored using phase contrast microscopy for a period of seven days. In addition, CellTiter-Glo 3D Cell Viability Assay (Promega, Madison, Wisconsin, USA), which determines the number of viable cells present in a 3D cell culture/spheroid by quantifying the amount of ATP present, was used to test the variability in cell attachment across the plate and adaptation of the plate to an automated liquid handling system 5 days after cells seeding. […] After that, CellTiter-Glo 3D was added to each of the wells and the relative light units (RLU) were quantified.
For orientation: In ATP-based viability assays light output follows the ATP content of the culture.

In data set [2] the test system is primary human hepatocytes (PHHs) spheroids on the TS-PS system. Nature of the data set: Alamar Blue cell viability of PHHs tethered spheroids on PS plates (TS-PS). The data set is classed as cell-based. To be noted: Hepatocyte, PHHs in TS-PS, 24 hours after treatment, 3 donors. The protocol: Cryopreserved PHHs were purchased commercially from Life Technologies (Carlsbad, CA, USA) and BD Biosciences (Franklin Lakes, NJ, USA). Freshly thawed cells were cultured as described[32] with daily culture media change. Hepatocytes from three different donors (three lots of commercial cells) were used for the experiments and all assays were performed after 72 hours of culture.
Cell viability of hepatocytes was measured 24 hours after treatment with drugs using Alamar Blue cell viability assay according to manufacturer’s instructions. Drugs used for the cell viability assays (Acetaminophen, Troglitazone, Chlorpromazine and Diclofenac) were purchased from Sigma. Stock solutions of drugs were prepared in DMSO and then diluted in media to obtain desired working concentrations. Controls were treated with solvent alone (in absence of test compounds) and considered as 100% viability value.
For orientation: The colour change of resazurin is a common sign of viable cells or microbes.

For the next data set, the system named is hepatocytes. To be noted: cited from earlier work.
Data set [3] has as its system hepatocyte tethered spheroids. The experiment in a line: Inhibition of spheroid spreading/tethering (live cell imaging of spheroid diameter). Type of data set: cell-based. To be noted: 24 hour live cell imaging, tethered spheroids on modified PS plates. How it is done: Hepatocytes were cultured as mentioned in section 2.1 and 2.2. Once spheroid formation was observed (2–3 days after cell seeding), cells were treated with DMSO or relevant hepatotoxicants (APAP/troglitazone) at different concentrations. 24 hour live cell imaging was performed starting 2 hours after drug addition using IN Cell Analyzer 2000 Imaging System (GE Healthcare Lifesciences, Buckinghamshire, U.K.). Images were acquired every 2 hours. Images acquired at 2 hours, 8 hours, 16 hours and 24 hours were used for further analysis. Individual spheroids were identified by image segmentation using Matlab Image Processing Toolbox and Statistical Toolbox (Mathworks) and the sizes of the spheroids were determined. Density plots were acquired in R (Version 3.1.2) to show the spheroid size distribution and percentage of spheroids within a certain diameter range at different drug concentrations was plotted in Excel.

Each structure is given as a SMILES string. Where two headings read alike, the source gives them in different places.

For the molecule `CN(C)CCCN1c2ccccc2Sc2ccc(Cl)cc21` [Chlorpromazine], in data set [1], the “CellTiter-Glo 3D signal (relative light units)” value was 1.55 × 10^4 RLU. The molecule further registered an IC50 in data set [2] of 122 µM.

In data set [2], `O=C(O)Cc1ccccc1Nc1c(Cl)cccc1Cl` [Diclofenac] came in with an IC50 of 4000 µM.

With `Cc1c(C)c2c(c(C)c1O)CCC(C)(COc1ccc(CC3SC(=O)NC3=O)cc1)O2` (stereo not drawn) [Troglitazone], the IC50 was 140 µM in the data set on hepatocytes (read-out: IC50 (reported)), 10 µM in data set [3] (read-out: Concentration at which spheroids of diameter 90–120 μm decreased by 50% compared to untreated control) and 100 µM in data set [2].

Consider `CC(=O)Nc1ccc(O)cc1` [Acetaminophen], for which the IC50 was 8000 to 40000 µM in the data set with hepatocytes (read-out: IC50 (conventional cell viability assays)), 5000 µM in data set [3] (read-out: IC50 using changes in cellular dynamics (spheroids of diameter 90–120 μm decreased by 50% compared to untreated control)) and 50000 µM in data set [2].
